Results as given in PubChem BioAssay (NCI).
Values joined by “and” are separate entries in the source; they are usually repeats but may differ in a detail not shown here. Equal values may be shown once.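 All cell lines were grown in 96-well plates and treated with compound for 48 hours. GI50 = concentration required for 50% inhibition of growth. TGI marks complete inhibition of growth.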

What was measured:
Test in all cases: NCI tumour cell line growth inhibition, 48 h
EKVX NSCLC = test system: EKVX NSCLC
HL-60(TB) leukemia = test system: HL-60(TB) leukemia
HOP-92 NSCLC = test system: HOP-92 NSCLC
MDA-MB-435 = test system: MDA-MB-435
MDA-N = test system: MDA-N
NCI-H460 lung = test system: NCI-H460 lung
OVCAR-5 ovarian = test system: OVCAR-5 ovarian
KM12 colon = test system: KM12 colon
SK-OV-3 ovarian = test system: SK-OV-3 ovarian
RXF 393 renal = test system: RXF 393 renal

| SMILES | TGI (EKVX NSCLC) [µM] | TGI (HL-60(TB) leukemia) [µM] | TGI (HOP-92 NSCLC) [µM] | TGI (MDA-MB-435) [µM] | TGI (MDA-N) [µM] | TGI (NCI-H460 lung) [µM] | TGI (OVCAR-5 ovarian) [µM] | TGI (KM12 colon) [µM] | TGI (SK-OV-3 ovarian) [µM] | TGI (RXF 393 renal) [µM] | GI50 (HL-60(TB) leukemia) | GI50 (HOP-92 NSCLC) |
| --- | --- | --- | --- | --- | --- | --- | --- | --- | --- | --- | --- | --- |
| O=C1c2c(O)cccc2Cc2cc(CO)cc(O)c21 | 9.62 | 3.1 | 4.21 | 15.5 | 11.5 | 8.04 | 15.2 |  |  |  |  |  |
| CCOC(=O)c1ccn2c(c1)c(C#N)c1nc3ccccc3nc12 | > 100 | > 100 |  |  |  | > 100 | > 100 | > 100 | > 100 |  |  |  |
| C[C@H]1S[C@H](c2c(F)cccc2F)n2c1nc1ccccc12 | > 100 |  |  | > 100 | > 100 | > 100 | > 100 | > 100 | > 100 | > 100 |  |  |
| COC1(C)CNCC(C)(C)NC(=O)C(C)(OC)CNCC(C)(C)NC1=O (centres undefined) | > 100 | > 100 | > 100 |  |  | > 100 | > 100 | > 100 | > 100 | > 100 |  |  |
| COc1cc2cnc3c4cc(OC)c(OC(C)C)cc4ccc3c2cc1OC | > 100 | > 100 | > 100 |  |  | > 100 | > 100 | > 100 | > 100 | > 100 |  |  |
| CCOc1nc2sc3c(c2c(=O)n1CCSSCCn1c(OCC)nc2sc4c(c2c1=O)CCCC4)CCCC3 | > 100 |  |  | > 100 | > 100 | > 100 | > 100 | > 100 | > 100 |  |  |  |
| COc1cc(/C=N/n2c(C)n[nH]c2=O)cc(OC)c1OC | > 100 |  |  | > 100 | > 100 | > 100 | > 100 | > 100 | > 100 | > 100 |  |  |
| Cc1cc(S(=O)(=O)NC2=NCC(C)(C)CN2)c(S)cc1Cl | > 100 | 62.1 |  | 85.1 | 83.4 | > 100 | 51.1 | > 100 | > 100 | > 100 |  |  |
| CN1CCN(Cc2ccccc2)CC1CC#N (centres undefined) | > 100 | > 100 |  | > 100 | > 100 | > 100 | > 100 | > 100 | > 100 | > 100 |  |  |
| COc1cc(OC)nc(-n2c(N)c(C(=O)O)c3ccc([N+](=O)[O-])cc3c2=O)n1 | > 100 | > 100 |  | > 100 | > 100 | > 100 | > 100 | > 100 | > 100 | > 100 |  |  |
| CN1N=C(c2ccccc2)c2cc(Cl)ccc2N=C1N/N=C/c1ccc(N(C)C)cc1 | > 100 | > 100 |  | > 100 | > 100 | > 100 |  | > 100 | > 100 | > 100 |  |  |
| COC(=O)/C(=N\N)C(C(=O)C(=O)Nc1nc(=S)[nH][nH]1)c1nc2ccc([N+](=O)[O-])cc2[nH]c1=O (centres undefined) | > 100 | > 100 | > 100 |  |  | > 100 | > 100 | > 100 | > 100 | > 100 |  |  |
| CC1N=C(c2ccccc2)OC1=O (centres undefined) | > 100 |  | > 100 | > 100 | > 100 | > 100 | > 100 | > 100 | > 100 |  |  |  |
| COC1OC(Cn2cc([N+](=O)[O-])nc2C)C(O)C(O)C1O (centres undefined) | > 100 |  | > 100 | > 100 | > 100 | > 100 | > 100 | > 100 | > 100 | > 100 |  |  |
| COc1cc2c(cc1OC)[C@H]1C(COC(=O)Nc3ccccc3)CN1CC2 (some centres undefined) |  | > 100 | > 100 |  |  | > 100 | > 100 | > 100 | > 100 | > 100 |  |  |
| Cc1cc(C)c(C(=O)C(C)C(c2ccccc2)c2ccc(Cl)cc2)c(C)c1 (centres undefined) | > 100 | > 100 | > 100 |  |  | > 100 |  | > 100 | > 100 | > 100 | > 100 µM and 39.6 µM | 47.4 µM and > 100 µM |
| C[C@]12CC[C@H](O)CC1=CC[C@@H]1[C@@H]2CC[C@]2(C)NC(=O)/C(=C\c3ccccc3)C[C@@H]12 | 28.4 |  |  | 37.8 | 69.8 | 68.9 | 27.9 | 30.3 | 35.5 | 27.9 |  |  |
| CCOC(=O)c1nc2cc(F)cc(F)c2[nH]c1=O |  | > 100 | > 100 | > 100 | > 100 | > 100 | > 100 | > 100 | > 100 |  |  |  |
